What was measured:
[1] = Photolysis (Xe flash lamp, bandpass filters) and dark storage assessed by UV-Vis and LC/MS; assay type: physicochemical; conditions: for photolysis at 546 nm (LC/MS): 546±10 nm (20 min); for photolysis at 546 nm (LC/MS) / photolysis at 646 nm (UV-Vis, LC/MS) / photolysis at 730 nm (LC/MS) / photolysis at 780 nm (LC/MS): 10 μM; for photolysis at 646 nm (UV-Vis, LC/MS): 646±10 nm (20 min); for photolysis at 730 nm (LC/MS): 730±10 nm (150 min); for photolysis at 780 nm (LC/MS): 780±10 nm (3 h)
Protocol: […] The conversion of alkylcobalamin to hydroxocoabalmin was determined by monitoring the absorption of the mixture at 350 nm using Perkin Elemer Lambda 2 UV/Vis spectrophotometer. (Taylor, R. T.; Smucker, L.; Hanna, M. L.; Gill, J. Arch. Biochem. Biophys. 1973, 156, 521-533.)
[…] The resulting sample (100 μL) was analyzed by LC/MS using a linear gradient binary solvent system (solvent A: 0.1% formic acid/H2O; solvent B: 0.1% formic acid/CH3CN) with a ratio of A:B that varied from 97:3 (0-5 min) to 3:97 (5-18 min).

[2] = Photolysis rate comparison: Xe flash lamp, 546±10 nm, conversion to hydroxocobalamin monitored at 350 nm; assay type: physicochemical; conditions: 10 μM
Protocol: General procedure: Photolysis was performed using an Oriel Xe flash lamp (800 mJ, 62 Hz) with a selective bandpass filter for 546±10 nm. The conversion of alkylcobalamin to hydroxocoabalmin was determined by monitoring the absorption of the mixture at 350 nm using Perkin Elemer Lambda 2 UV/Vis spectrophotometer. (Taylor, R. T.; Smucker, L.; Hanna, M. L.; Gill, J. Arch. Biochem. Biophys. 1973, 156, 521-533.)

[3] = administered by IV; cited from earlier work
HeLa cells = assay: Treatment of HeLa cells with colchicine (tubulin staining); assay type: cell-based; conditions: increasing colchicine
Protocol: Treatment of HeLa cells with colchicine. […] Cells are washed 2×1 mL with PBS and blocked for 1 h in 5% donkey serum. […] Metamorph software is employed for imaging analysis.

Molecule	photolysis at 546 nm (LC/MS) [1]	photolysis at 646 nm (UV-Vis, LC/MS) [1]	photolysis at 730 nm (LC/MS) [1]	photolysis at 780 nm (LC/MS) [1]	other results
C/C1=C2/[N-]C([C@H](CC(N)=O)[C@@]2(C)CCC(=O)NC[C@@H](C)OP(=O)([O-])O[C@H]2[C@@H](O)[C@@H](n3cnc4cc(C)c(C)cc43)O[C@@H]2CO)[C@]2(C)N=C(/C(C)=C3N=C(/C=C4N=C1[C@@H](CCC(N)=O)C\4(C)C)[C@@H](CCC(N)=O)[C@]\3(C)CC(N)=O)[C@@H](CCC(N)=O)[C@]2(C)CC(N)=O.[CH2-][C@H]1O[C@@H](n2cnc3c(N)ncnc32)[C@@H](O)[C@@H]1O.[Co+3] [AdoCbl, Coenzyme B12, reference compound]	produces these products				photolysis at wavelengths beyond 600 nm (LC/MS) [1]: resistant to photolysis; rate of photolysis at 546 nm [2]: 1.7±0.2 μM^−1/m
αMSH: 13 amino acid α-melanocyte stimulating hormone					half life [3]: only a few minutes
Coenzyme B12-SulfoCy5 Conjugate [AdoCbl-2]	produced adenosine products	produced adenosine products	unaffected	unaffected	
Coenzyme B12-ATTO 725 Conjugate [AdoCbl-3]	complete photolysis	partial photolysis	complete photolysis	not at 780 nm	
Coenzyme B12-Dylight® 800 Conjugate [AdoCbl-4]	generated the expected adenosine products	resistant to photolysis	Partial photolysis	generated the expected adenosine products	
COc1cc2c(c(OC)c1OC)-c1ccc(OC)c(=O)cc1[C@@H](NC(C)=O)CC2 [colchicine]					effect on tubulin networks (HeLa cells): tubulin networks become disrupted
C/C1=C2/[N-][C@H]([C@H](CC(N)=O)[C@@]2(C)CCC(=O)NC[C@H](C)OP(=O)([O-])O[C@H]2[C@@H](O)[C@@H](n3cnc4cc(C)c(C)cc43)O[C@@H]2CO)[C@]2(C)N=C(/C(C)=C3N=C(/C=C4N=C1[C@@H](CCC(N)=O)C\4(C)C)[C@@H](CCC(N)=O)[C@]\3(C)CC(N)=O)[C@@H](CCC(N)=O)[C@]2(C)CC(N)=O.[CH3-].[Co+3] [MeCbl, methylcobalamin]					photolysis rate [2]: 31700 ± 3300 M⁻¹ s⁻¹
coenzyme B12-TAMRA conjugate [AdoCbl-1]	produces these products				photolysis at wavelengths beyond 600 nm (LC/MS) [1]: resistant to photolysis; rate of photolysis at 546 nm [2]: 2.9±0.3 μM^−1/m

— US20160144031A1, “Photo-Responsive Compounds” (priority 2013, published 2016)
